Measured values published in publication PMC10049495, “Antitumor Activity of PEGylated and TEGylated Phenothiazine Derivatives: Structure–Activity Relationship” (International Journal of Molecular Sciences, 2023).
pIC50: −log10 of the molar value. Read-outs that look alike come from different tables or passages of the source.

Assays:
HeLa = details: cited from earlier work
MeWo = details: cited from earlier work
HepG2 = details: cited from earlier work
CT-26 = details: cited from earlier work
NHDF = tested on: NHDF; parameters: method as in earlier work; details: cited from earlier work
Colo205 = details: cited from earlier work
MCF-7 = details: reference cell empty, probably merged; cited from earlier work
[1] = Complex formation with Mg2+ (estimate of farnesyltransferase inhibition), FTIR/UV-vis; details: 2/1 compound/MgCl2, 2 days at 37 °C, FTIR and UV-vis; taken as estimate of farnesyltransferase inhibition
Description: To estimate the ability of the studied compounds to inhibit the FT, their ability to bind the Zn^2+ or Mg^2+ ions was investigated by incubation in similar conditions as in vitro antitumor tests. The experiments indicated the ability of TEGylated derivatives to bind Mg^2+ ions, as follows.
After that, all the solutions were lyophilized, and the solid samples obtained were subjected to the FTIR spectroscopy measurements. Then, the mixtures that indicated complex formation were dissolved in DMSO, and their UV-vis spectra were recorded.

[2] = Solubility test in water with 1% DMSO; format: physicochemical; details: water with 1% of DMSO, read-out: concentration up to which the compound is soluble
Description: Solubility tests were performed to establish the maximum concentration of the compounds that might be used for in vitro tests by dissolving 0.003 mmol of compound in 1mL of water (H2O) with 1% of DMSO. The amount of solvent was increased until the compound was completely dissolved. The volume of solvent corresponding to the solving point was used to calculate the concentration. The TEGylated compounds were soluble under 0.3 mM (PTF) and 0.2 mM (PTMA, PTEA), and PEGylated compounds were soluble at to a concentration of 2 mM.

[3] = tested on: malignant melanoma (MeWo) cells; experiment: Cytotoxicity MTS assay on MeWo; format: cell-based, human; details: Homo sapiens; MeWo, 48 h, MTS; tested 0.01-0.3 mM; read-out: Half maximal inhibition concentration (IC50)
Description: (§1) Cell culture: NHDF, HeLa, HOS, HepG2, MCF7, MeWo and CT-26 cells were cultivated in complete Eagle’s Minimal Essential Medium alpha (aMEM) containing a 1% Penicillin–Streptomycin–Amphotericin B mixture and a 10% fetal bovine serum under 5% CO2 humidified atmosphere at 37 °C. LN-229 cells were cultivated in DMEM with a 1% Penicillin–Streptomycin–Amphotericin B mixture and a 5% fetal bovine serum. U-118 cells were cultivated in DMEM with a 1% Penicillin–Streptomycin–Amphotericin B mixture and a 10% fetal bovine serum. StemPro™ Accutase™ Cell Dissociation Reagent was used for passaging MeWo and U-118 cells, and TrypLE Express was used for all other cell lines.
(§2) The working solutions were prepared by diluting the stock solutions with complete medium so that the final concentration of DMSO in the cell culture was 1%. The working solutions were used for incubation. Control cells were treated only with complete cell culture medium containing 1% DMSO.
(§3) Cytotoxicity MTS assay: In order to perform the MTS assay, cells were placed in culture-treated 96-well plates at densities of 5 × 10^3 cells/well (NHDF and CT-26), 7 × 10^3 cells/well (MCF7) and 10 × 10^3 cells/well (HOS, HeLa, HepG2, MeWo, LN-229, U-118) in 100 μL of a MEM medium/well and allowed to adhere for 24 h. After 24 h, the culture medium was replaced with the tested compound solutions at various concentrations, and the plates were incubated for another 48 h. Before the final reading, 20 μL CellTiter 96® Aqueous One Solution/well was added, and the plates were incubated for 1–4 h. Finally, the absorbance was recorded with a microplate reader at λ = 490 nm. The relative cell viability was expressed as a percentage of the viability of control, and the half maximal inhibitory concentration (IC50) was determined from the graphical representation of the cell viability vs. concentration. Graphical data were expressed as means ± standard error of the mean (S.E.M.). Statistical analysis was made with two-way ANOVA using Tukey’s multiple comparisons test. The difference was considered significant when p < 0.05. Data analysis was performed with GraphPad Prism software version 7.00 for Windows.

[4] = tested on: normal human dermal fibroblasts (NHDF); experiment: Cytotoxicity MTS assay on normal fibroblasts; format: cell-based; details: Homo sapiens, 48 h, tested 0.01-0.3 mM, read-out: Half maximal inhibition concentration (IC50)
Description: as §1, §2, §3

[5] = tested on: mouse colon carcinoma cell line (CT26); experiment: Cytotoxicity MTS assay on CT-26; format: cell-based; details: for Selectivity index (SI): IC50 NHDF / IC50 CT-26; for pIC50: CT-26, 48 h
Description: as §1, §2, §3

[6] = DPPH radical scavenging activity; details: DPPH, 0.0019-1 mM
Description: In this light, the antioxidant activity of the studied phenothiazine derivatives was investigated using DPPH assay, measuring the dependence of the free radical inhibition on the concentration as highlighted by a decreasing of the absorbance of DPPH when the concentration of the compound is increasing. The results, expressed in percentage of inhibition, are represented in Figure 4.
Ex Vivo Radical Scavenging Activity: In order to evaluate antioxidant activity of the studied compounds, a bleaching method of the 1,1-diphenyl-2-picryl hydrazyl (DPPH) radical was used. Briefly, a stock solution of 2 mM of each compound in ethanol was prepared and then diluted to obtain 10 different concentrations from 1 mM to 0.0019 mM using a 96-well plate. The diluted solutions with different concentrations were mixed with an equal volume of ethanolic DPPH solution (0.05 mg/mL), and the mixtures were incubated in the dark at room temperature […] for 1 h. After incubation, the absorbance was read at 517 nm. Inhibition percentage was calculated using Equation (2), where Ac is the absorbance of the control sample (DPPH) and As is the absorbance of the mixtures. All measurements were made in triplicate. I % = (Ac-As)/Ac × 100 (2)

[7] = tested on: breast cancer (MCF7) cells; experiment: Cytotoxicity MTS assay on MCF-7; format: cell-based, human; details: for pIC50: Homo sapiens, MCF7, MCF-7, 48 h, MTS, tested 0.01-0.3 mM, read-out: Half maximal inhibition concentration (IC50); for Selectivity index (SI): IC50 NHDF / IC50 MCF7
Description: as §1, §2, §3

[8] = Glutamine imination/transimination (amino acid binding) followed by NMR; details: 1/1 molar ratio with glutamine, MEM medium, 37 °C, 48 h
Description: The ability of the studied compounds to bind amino acids by imitation or transamination processes was investigated for glutamine amino acid. To do this, all compounds were incubated in the presence of glutamine for 48 h in a MEM solution to simulate in vitro tests on cancer cell lines. After incubation, the water was removed by lyophilization, and the crude solid was analyzed by NMR. […] Additional information about imine formation was obtained from the H,C-HSQC spectrum (Figure S2). In this type of heteronuclear bidimensional spectrum, a proton–carbon direct bond correlation signal was obtained between the proton resonating at 8.15 ppm and the carbon resonating at 160.5 ppm.
The mixtures were incubated at 37 °C for 48 h in order to simulate the in vitro conditions of antitumor determinations. After the incubation, all the samples were lyophilized, dissolved in DMSO-d6 and subjected to NMR spectroscopy analysis. The samples that indicated the imine formation were further investigated by recording the ^1H, ^15N HMBC and ^1H, ^13C HSQC NMR spectra. The ^1H-NMR and ^1H, ^15N HMBC NMR spectra of the glutamine dissolved in a mixture of 9/1 H2O/D2O were also provided as reference in order to determine which nitrogen was involved in the imine linkage. After the NMR studies, the same samples were diluted with DMSO to obtain a solution of 0.33 mM in order to provide their UV-vis spectra.

[9] = tested on: liver cancer (HepG2) cells; experiment: Cytotoxicity MTS assay on HepG2; format: cell-based, human; details: for pIC50: HepG2, 48 h; for Selectivity index (SI): IC50 NHDF / IC50 HepG2
Description: as §1, §2, §3

[10] = tested on: glioblastoma (LN229) cells; experiment: Cytotoxicity MTS assay on LN229; format: cell-based, human; details: Homo sapiens, LN-229, LN229, 48 h, tested 0.01-0.3 mM, read-out: Half maximal inhibition concentration (IC50)
Description: as §1, §2, §3

[11] = tested on: cervical carcinoma (HeLa) cells; experiment: Cytotoxicity MTS assay on HeLa; format: cell-based, human; details: for Selectivity index (SI): IC50 NHDF / IC50 HeLa
Description: as §1, §2, §3

osteosarcoma (HOS) cells = experiment: Cytotoxicity MTS assay on HOS; format: cell-based, human; details: Homo sapiens, 48 h, tested 0.01-0.3 mM, read-out: Half maximal inhibition concentration (IC50)
Description: as §1, §2, §3

[12] = tested on: glioblastoma cell line (U-118); experiment: Cytotoxicity MTS assay on U-118; format: cell-based, human; details: Homo sapiens; U-118, 48 h, MTS; tested 0.01-0.3 mM; read-out: Half maximal inhibition concentration (IC50)
Description: as §1, §2, §3

[13] = Cytotoxicity MTS assay on normal fibroblasts; format: cell-based, human; details: human, normal human dermal fibroblasts (NHDF), read-out: cell viability
Description: as §1, §2, §3

U87-MG = details: cell line not clear from layout (U87-MG assumed); cited from earlier work
[14] = Mus musculus, CT26, MTS, tested 0.01-0.3 mM, read-out: Half maximal inhibition concentration (IC50)
[15] = Homo sapiens, MTS, tested 0.01-0.3 mM, read-out: Half maximal inhibition concentration (IC50)
[16] = Homo sapiens, HeLa, 48 h, MTS, tested 0.01-0.3 mM, read-out: Half maximal inhibition concentration (IC50)

ability to bind Mg^2+ ions (in words) [1] | solubility [2] [µM] | Structure (SMILES) | pIC50 [3] | pIC50 [4] | Selectivity index (SI) [5] | radical scavenging capacity (in words) [6] | pIC50 [7] | pIC50 [9, 15] | Selectivity index (SI) [9] | pIC50 [10] | Selectivity index (SI) [11] | pIC50 (osteosarcoma (HOS) cells) | pIC50 [12] | other results
 |  | O=c1[nH]cc(F)c(=O)[nH]1 [5-Florouracil] |  |  |  |  |  |  |  |  |  |  |  | pIC50 (HeLa; reference cell empty, probably merged): 3.17; pIC50 (MeWo): 4.21; pIC50 (HepG2): 3.60; pIC50 (CT-26): 3.52; pIC50 (NHDF): 4.60
 |  | CN(C)CCCN1c2ccccc2Sc2ccc(Cl)cc21 [Chlorpromazine] |  |  |  |  |  |  |  |  |  |  |  | pIC50 (Colo205): 5.00
 |  | COc1cccc2c1C(=O)c1c(O)c3c(c(O)c1C2=O)C[C@@](O)(C(=O)CO)C[C@@H]3O[C@H]1C[C@H](N)[C@H](O)[C@H](C)O1 [Doxorubicin] |  |  |  |  |  |  |  |  |  |  |  | pIC50 (HeLa): 6.74; pIC50 (MeWo): 4.06; pIC50 (HepG2): 5.99; pIC50 (MCF-7): 7.15; pIC50 (CT-26): 5.00; pIC50 (NHDF): 6.86
formation of dative bonds | < 200 | COCCOCCOCCN1c2ccccc2Sc2cc(/C=N/CCc3ccc(S(N)(=O)=O)cc3)ccc21 [PTEA] | 3.62 | 3.97 | 1.25 | very low radical scavenging capacity | 3.86 | 4.07 | 1.25 | 3.74 | 6.66 | < 3.52 | 3.77 | pIC50 [5, 14]: 4.10; ability to bind glutamine by imination/transimination (in words) [8]: direct transimination; pIC50 [11, 16]: 4.82
dative bond with magnesium | < 300 | COCCOCCOCCN1c2ccccc2Sc2cc(C=O)ccc21 [PTF, 10-(triethylene glycol)-10H-phenothiazine-3-carbaldehyde] | 3.83 | 3.82 | 2.38 | very low radical scavenging capacity | 3.97 | 4.30 | 3 | 3.73 | 10 | < 3.52 | 3.72 | viability at 48 h, 0.05 mM ([13]; 0.05 mM): 86%; viability at 48 h, 0.2 mM ([13]; 0.2 mM): 33%; viability at 100 µM ([5]; Mus musculus, CT26, CT-26, 0.1 mM, 48 h, MTS): 30%; pIC50 ([5]; Mus musculus, CT26, MTS, read-out: IC50): 4.20; Selectivity index (SI) [7]: 1.5; viability at 100 µM ([9]; Homo sapiens, HepG2, 0.1 mM, 48 h, MTS, read-out: cell viability): 27%; pIC50 ([9]; Homo sapiens, MTS, read-out: IC50): 4.28; viability at 50 µM ([11]; Homo sapiens, HeLa, 0.05 mM, 48 h, MTS, read-out: cell viability): 11%; pIC50 ([11]; Homo sapiens, HeLa, 48 h, MTS, read-out: IC50): 4.82
formation of dative bonds | < 200 | COCCOCCOCCN1c2ccccc2Sc2cc(/C=N/Cc3ccc(S(N)(=O)=O)cc3)ccc21 [PTMA, 4-((((10-(triethylene glycol)-10H-phenothiazin-3-yl)methylene)amino)methyl)benzenesulfonamide] | 3.54 | 3.70 | 2 | very low radical scavenging capacity | 3.85 | 4.08 | 2.5 | 3.66 | 6.89 | < 3.52 | < 3.52 | pIC50 [5, 14]: 3.97; Selectivity index (SI) [7]: 1.42; ability to bind glutamine by imination/transimination (in words) [8]: glutamine binding process took places in two steps; pIC50 [11, 16]: 4.54
 |  | OCCN1CCN(CCCN2c3ccccc3Sc3ccc(Cl)cc32)CC1 [Perphenazine] |  |  |  |  |  |  |  |  |  |  |  | pIC50 (U87-MG): 5.17
